In ChEMBL document CHEMBL4477270, “Design, synthesis, and protein methyltransferase activity of a unique set of constrained amine containing compounds” (Bioorg Med Chem Lett, 2016):
Calls of active or inactive are those of the source. The calls are words filed in the database; no cut-off is given here.

Key:
[1] = target: T1, Histone-lysine N-methyltransferase NSD3 (Homo sapiens) (UniProt Q9BZ95); experiment: Inhibition of NSD3 (unknown origin) using biotin-labeled histone substrate assessed as residual activity at 50 uM in presence of [3H-Me]SAM by scintillation proximity assay relative to control
T1 sequence (whole entry): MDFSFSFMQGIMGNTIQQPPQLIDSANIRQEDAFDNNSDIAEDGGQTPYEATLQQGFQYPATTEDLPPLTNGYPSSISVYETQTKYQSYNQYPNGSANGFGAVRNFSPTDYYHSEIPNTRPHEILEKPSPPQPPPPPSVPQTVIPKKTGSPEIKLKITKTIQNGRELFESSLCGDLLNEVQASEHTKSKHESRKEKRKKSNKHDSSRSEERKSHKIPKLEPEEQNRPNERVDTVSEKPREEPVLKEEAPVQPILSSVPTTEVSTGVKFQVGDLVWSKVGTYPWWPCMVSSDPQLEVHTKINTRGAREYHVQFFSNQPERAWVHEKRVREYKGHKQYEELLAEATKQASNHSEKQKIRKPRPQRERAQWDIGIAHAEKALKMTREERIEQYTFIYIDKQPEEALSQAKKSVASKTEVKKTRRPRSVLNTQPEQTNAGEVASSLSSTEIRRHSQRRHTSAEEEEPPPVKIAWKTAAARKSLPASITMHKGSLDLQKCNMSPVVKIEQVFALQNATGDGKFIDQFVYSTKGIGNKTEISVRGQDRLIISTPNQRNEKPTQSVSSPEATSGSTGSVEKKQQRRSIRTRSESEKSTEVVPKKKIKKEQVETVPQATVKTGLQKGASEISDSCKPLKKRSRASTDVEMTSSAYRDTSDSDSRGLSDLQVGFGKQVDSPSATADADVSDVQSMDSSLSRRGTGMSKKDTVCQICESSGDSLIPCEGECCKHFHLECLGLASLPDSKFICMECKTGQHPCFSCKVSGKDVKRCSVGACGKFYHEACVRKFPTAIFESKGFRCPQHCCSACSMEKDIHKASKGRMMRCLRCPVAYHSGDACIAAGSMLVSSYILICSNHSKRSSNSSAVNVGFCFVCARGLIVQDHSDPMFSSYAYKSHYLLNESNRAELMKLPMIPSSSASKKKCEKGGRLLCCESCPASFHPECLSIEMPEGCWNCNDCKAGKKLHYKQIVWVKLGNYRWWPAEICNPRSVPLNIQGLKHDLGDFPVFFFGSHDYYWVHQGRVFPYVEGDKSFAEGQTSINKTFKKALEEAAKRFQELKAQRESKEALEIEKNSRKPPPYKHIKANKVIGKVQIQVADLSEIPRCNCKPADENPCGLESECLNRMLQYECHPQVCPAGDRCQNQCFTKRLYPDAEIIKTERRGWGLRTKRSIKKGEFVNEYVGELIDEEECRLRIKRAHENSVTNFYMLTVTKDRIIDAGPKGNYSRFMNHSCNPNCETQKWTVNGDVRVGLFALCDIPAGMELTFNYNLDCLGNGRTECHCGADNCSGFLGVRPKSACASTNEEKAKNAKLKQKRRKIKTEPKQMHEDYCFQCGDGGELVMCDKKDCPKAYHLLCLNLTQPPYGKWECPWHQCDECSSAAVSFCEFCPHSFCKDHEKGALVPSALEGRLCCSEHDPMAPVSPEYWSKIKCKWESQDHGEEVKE

[2] = target: Histone-lysine N-methyltransferase SETDB1 (Homo sapiens) (UniProt Q15047); experiment: Inhibition of SETDB1 (unknown origin) using biotin-labeled histone substrate assessed as residual activity at 50 uM in presence of [3H-Me]SAM by scintillation proximity assay relative to control
[3] = target: Histone-lysine N-methyltransferase, H3 lysine-79 specific (Homo sapiens) (UniProt Q8TEK3); experiment: Inhibition of DOT1L (unknown origin) using biotin-labeled histone substrate assessed as residual activity at 50 uM in presence of [3H-Me]SAM by scintillation proximity assay relative to control
Histone-lysine N-methyltransferase, H3 lysine-79 specific (Homo sapiens), sequence (Q8TEK3 whole entry, looked up, the tested form may be a part): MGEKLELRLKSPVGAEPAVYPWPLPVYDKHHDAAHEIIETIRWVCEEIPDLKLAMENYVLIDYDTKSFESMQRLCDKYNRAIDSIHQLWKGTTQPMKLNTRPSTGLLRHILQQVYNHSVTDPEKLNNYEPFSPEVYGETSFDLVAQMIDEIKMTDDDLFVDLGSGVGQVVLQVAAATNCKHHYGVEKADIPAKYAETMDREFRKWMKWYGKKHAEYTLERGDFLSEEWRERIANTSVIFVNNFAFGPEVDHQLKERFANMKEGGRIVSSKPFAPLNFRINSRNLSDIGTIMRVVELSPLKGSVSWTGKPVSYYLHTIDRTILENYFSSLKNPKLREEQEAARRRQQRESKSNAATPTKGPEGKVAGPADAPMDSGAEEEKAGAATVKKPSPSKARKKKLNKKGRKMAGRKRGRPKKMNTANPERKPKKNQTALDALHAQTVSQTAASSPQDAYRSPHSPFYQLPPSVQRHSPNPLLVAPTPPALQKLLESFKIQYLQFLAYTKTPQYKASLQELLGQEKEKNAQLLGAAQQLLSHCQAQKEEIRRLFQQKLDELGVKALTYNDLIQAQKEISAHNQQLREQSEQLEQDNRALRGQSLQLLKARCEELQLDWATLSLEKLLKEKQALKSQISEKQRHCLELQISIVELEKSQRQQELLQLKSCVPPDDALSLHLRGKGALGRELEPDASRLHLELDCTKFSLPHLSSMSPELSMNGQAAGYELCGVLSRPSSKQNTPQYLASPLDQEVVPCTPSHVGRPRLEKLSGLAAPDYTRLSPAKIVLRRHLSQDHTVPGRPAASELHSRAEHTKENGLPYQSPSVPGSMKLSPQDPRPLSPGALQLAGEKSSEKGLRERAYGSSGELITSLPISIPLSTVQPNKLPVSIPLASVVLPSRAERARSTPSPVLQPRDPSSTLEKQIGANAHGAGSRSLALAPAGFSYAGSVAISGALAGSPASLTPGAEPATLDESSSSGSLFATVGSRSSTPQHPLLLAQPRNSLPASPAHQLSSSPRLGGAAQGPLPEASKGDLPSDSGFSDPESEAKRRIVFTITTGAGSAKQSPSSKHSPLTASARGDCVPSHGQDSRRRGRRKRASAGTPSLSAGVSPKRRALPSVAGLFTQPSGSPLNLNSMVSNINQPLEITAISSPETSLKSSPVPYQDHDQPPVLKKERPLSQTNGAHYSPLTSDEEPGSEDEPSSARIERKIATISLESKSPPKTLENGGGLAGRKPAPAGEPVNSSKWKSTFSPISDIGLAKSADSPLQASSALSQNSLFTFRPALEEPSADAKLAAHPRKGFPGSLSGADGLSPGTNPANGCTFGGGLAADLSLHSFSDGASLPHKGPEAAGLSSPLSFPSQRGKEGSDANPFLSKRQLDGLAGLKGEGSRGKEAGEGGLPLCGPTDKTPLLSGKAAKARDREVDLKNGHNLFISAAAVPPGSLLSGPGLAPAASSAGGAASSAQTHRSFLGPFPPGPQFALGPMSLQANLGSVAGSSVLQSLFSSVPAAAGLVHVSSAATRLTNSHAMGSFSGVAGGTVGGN

[4] = target: T2, N-lysine methyltransferase KMT5A (Homo sapiens, UniProt Q9NQR1); experiment: Inhibition of SETD8 (unknown origin) using biotin-labeled histone H4 (1 to 24 residues) as substrate in presence of [3H-Me]SAM by scintillation proximity assay
T2 sequence (Q9NQR1 whole entry): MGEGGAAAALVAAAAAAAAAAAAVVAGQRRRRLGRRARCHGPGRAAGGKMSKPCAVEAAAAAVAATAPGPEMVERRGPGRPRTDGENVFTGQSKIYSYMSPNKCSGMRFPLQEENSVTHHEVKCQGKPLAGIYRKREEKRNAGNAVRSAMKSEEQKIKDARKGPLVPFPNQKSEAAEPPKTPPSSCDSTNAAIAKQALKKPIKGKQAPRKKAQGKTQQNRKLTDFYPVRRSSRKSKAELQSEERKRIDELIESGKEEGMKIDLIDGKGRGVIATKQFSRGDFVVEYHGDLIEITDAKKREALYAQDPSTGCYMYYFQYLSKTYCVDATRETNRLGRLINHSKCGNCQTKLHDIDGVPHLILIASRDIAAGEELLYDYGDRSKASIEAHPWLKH

[5] = target: T3, N-lysine methyltransferase KMT5A (Homo sapiens) (UniProt Q9NQR1); experiment: Binding affinity to SETD8 (unknown origin) in absence of S-adenosyl-L-homocysteine by isothermal titration calorimetry
T3 sequence (whole entry): T2 sequence (Q9NQR1 whole entry)

[6] = target: T3, N-lysine methyltransferase KMT5A (Homo sapiens); experiment: Binding affinity to SETD8 (unknown origin) in presence of S-adenosyl-L-homocysteine by isothermal titration calorimetry

| Structure (SMILES) | Activity [1] [%] | Activity [2] [%] | Activity [3] [%] | IC50 [4] [µM] | Activity [5] | Activity [6] |
| --- | --- | --- | --- | --- | --- | --- |
| O=C(c1cccc(Br)c1)N1CC[C@H]2NCC[C@H]2C1 | 107 | 100 | 99 |  |  |  |
| O=C(c1cccc(Br)c1)N1C[C@@H]2CC3CCCCN3[C@@H]2C1 (some centres not stated) | 94 | 101 | 96 |  |  |  |
| O=C(c1cccc(Br)c1)N1C[C@@H]2CCN[C@@H]2C1 | 94 | 107 | 94 |  |  |  |
| O=C(c1cccc(Br)c1)N1CCC2CNCC2C1 (configuration not stated) | 102 | 95 | 94 |  |  |  |
| CN1CC[C@H]2CN(C(=O)c3cccc(Br)c3)C[C@H]21 | 92 | 102 | 91 |  |  |  |
| O=C(c1cccc(Br)c1)N1C[C@H]2CCCN[C@H]2C1 | 100 | 111 | 89 |  |  |  |
| CN1CCC[C@@H]2CN(C(=O)c3cccc(Br)c3)C[C@@H]21 | 98 | 101 | 97 | 39 | inactive | inactive |
| O=C(c1cccc(Br)c1)N1CCC[C@@H]2CNC[C@@H]21 | 106 | 109 | 96 |  |  |  |
| CN1C[C@H]2CCCN(C(=O)c3cccc(Br)c3)[C@H]2C1 | 92 | 101 | 94 |  |  |  |
| O=C(c1cccc(Br)c1)N1C[C@@H]2CC3CCCN3[C@@H]2C1 (some centres not stated) | 106 | 96 | 100 |  |  |  |
| O=C(c1cccc(Br)c1)N1CC[C@@H]2[C@@H](CC3CCCCN32)C1 (some centres not stated) | 98 | 97 | 105 |  |  |  |

Results, then the molecule that gave them:

| Activity [1] [%] | Activity [2] [%] | Activity [3] [%] | IC50 [4] [µM] | Activity [5] | Activity [6] | Structure (SMILES) |
| --- | --- | --- | --- | --- | --- | --- |
| 99 | 106 | 96 |  |  |  | CN1CCCC2(CCCN(C(=O)c3cccc(Br)c3)C2)C1 (configuration not stated) |
| 96 | 94 | 97 |  |  |  | CN1CCC2(CCCN2C(=O)c2cccc(Br)c2)CC1 |
| 93 | 102 | 96 |  |  |  | O=C(c1cccc(Br)c1)N1CCCC2(CCNCC2)C1 |
| 95 | 98 | 94 |  |  |  | CN1CCCC12CCCN(C(=O)c1cccc(Br)c1)C2 (configuration not stated) |
| 101 | 101 | 100 |  |  |  | CN1CCCC12CCN(C(=O)c1cccc(Br)c1)CC2 |
| 110 | 108 | 102 |  |  |  | CN1CCC2(CC1)CCN(C(=O)c1cccc(Br)c1)CC2 |
| 99 | 97 | 96 | > 200 |  |  | C[N+]1(C)CCCCC12CCN(C(=O)c1cccc(Br)c1)CC2 |
| 98 | 110 | 103 |  |  |  | O=C(c1cccc(Br)c1)N1CCC2(CCNCC2)CC1 |
| 102 | 109 | 107 |  |  |  | CN1CCCC2(CCCN2C(=O)c2cccc(Br)c2)C1 (configuration not stated) |
| 97 | 108 | 101 | > 200 |  |  | CN1CCCCC12CCN(C(=O)c1cccc(Br)c1)CC2 |
| 104 | 94 | 97 |  |  |  | CN1CCC2(CCCN(C(=O)c3cccc(Br)c3)C2)C1 (configuration not stated) |
| 100 | 105 | 100 |  |  |  | CN1CCCCC12CCCN(C(=O)c1cccc(Br)c1)C2 (configuration not stated) |
| 111 | 108 | 100 |  |  |  | O=C(c1cccc(Br)c1)N1CCCC2(CCCCN2)C1 (configuration not stated) |
